Measurements from patent US20180327375A1, “AROMATIC SURFACTANTS” (REGENTS OF THE UNIVERSITY OF MINNESOTA, priority 2015, published 2018).
“And” between values parts separate entries of the source, which are not always exact repeats. Equal entries are not always repeated. Structures can show the parent of a compound that is named as a salt. Where two headings read alike, the source gives them in different places. Blank lines part the entries; values can stand above or below the compound they belong to.

How the values were obtained:
Assay type in all cases: physicochemical
[1] = Krafft point by conductivity vs temperature; settings: 1.0 wt % surfactant in water (2.0 wt % for OFS-12-1/O)
Protocol: Krafft point or Krafft temperature is the minimum temperature at which surfactants form micelles. Below Krafft point, the surfactants precipitate out of solution and remain in the crystalline phase. FIG. 30 depicts the apparatus utilized for the measurement of Krafft points. A 1.0 wt % solution of surfactant in deionized water was prepared for all surfactants except in the case of OFS-12-1/O where a 2.0 wt % solution was used instead, since its CMC is roughly about 1.1 wt %. 50 mL of the prepared solution was poured into a beaker surrounded by a freezing mixture of ice and salt (sodium chloride) mounted on a laboratory hot plate with magnetic stirring. The Krafft point (TK) of the surfactants was measured by estimating the degree of counterion dissociation using a conductivity meter (COND 6+, Oakton/Eutech Instruments) immersed in the surfactant solution capable of measuring both, conductivity and temperature. The magnetic stirring speed was set to 650 rpm and the solution was first allowed to cool to 0° C. Upon attainment of this temperature, the solution was slowly heated and the conductivity was measured in every 0.5° C. increments until it reached a steady value. […] Visually, this corresponded to the surfactant solution transitioning from a turbid system due to the precipitated surfactant crystals below the Krafft point to a clear solution indicating the dissolution of surfactants and the formation of micelles in water.
For the OFS-Cocinic, n=8-18 surfactant, the conductivity vs temperature plot was erratic, which is attributed to the presence of 6 different surfactants in the mixture. The solution changed from turbid to clear at approximately 18.5° C. which was, therefore, reported as the Krafft point. Methyl Ester Sulfonate (MES), Sodium Lauryl Ether Sulfate (SLES), OFS-7 and all OFS-n-1/O surfactant solutions remained clear even at 0° C.; the Krafft point was thus reported as <0° C.

[2] = Hardness tolerance / hard water stability (surface tension and turbidity vs CaCl2 concentration); settings: for Turbid conc.: onset of turbidity
Source text: Precipitation of the anionic surfactant from hard water is an undesired process in detergency. The tendency of the anionic surfactants to precipitate is quantified by analyzing hardness tolerance. Hardness tolerance is the minimum concentration of counterion, such as, Ca^2+ and Mg^2+, precipitating with surfactant, resulting in deactivation of the surfactant performance (C. H. Rodriguez, L. H. Lowery, J. F. Scamehorn, J. H. Harwell, Kinetics of precipitation of surfactants. I. Anionic surfactants with calcium and with cationic surfactants. Journal of Surfactants and Detergents 4, 1-14 (2001); C. H. Rodriguez, C. Chintanasathien, J. F. Scamehorn, C. Saiwan, S. Chavadej, Precipitation in solutions containing mixtures of synthetic anionic surfactant and soap. I. Effect of sodium octanoate on hardness tolerance of sodium dodecyl sulfate. Journal of Surfactants and Detergents 1, 321-328 (1998); and J. F. Scamehorn, “Precipitation of mixtures of anionic surfactants” in mixed Surfactant systems ACS Symposium Series (American Chemical Society: Washington D.C., 1992), pp. 392-401). Calcium chloride was used as a divalent counterion, and surface tension of the surfactant solution was measured with increasing concentration of CaCl2 from 1 mM to 450 mM. The value of calcium concentration above which the surface tension of the surfactant solution increased was recorded as the tolerance value of the surfactant towards calcium as indicated by the dashed red line in FIGS. 46A to 49B.
All experiments were carried out at a concentration equal to twice CMC of each surfactant, and the point of transition from a clear solution to a turbid one was also monitored. FIGS. 50A to 50E illustrate this effect for a linear alkylbenzene sulfonate (LAS) solution. Below the turbid point, the surfactant solution was clear as shown by FIGS. 50B and 50C which changed to a cloudy solution at calcium concentrations equal to and greater than the turbid point (FIG. 50D and FIG. 50E). The point of micelle stability was marked by an increase in the surface tension of the surfactant solution with an increase in calcium concentration. FIG. 50C corresponds to the micelle stability concentration and FIG. 50D corresponds to the turbid concentration. Micelle stability is defined as the calcium concentration at the increasing point of surface tension, and turbid concentration marks the onset of turbidity in the surfactant solution The solution transitions from clear to turbid as shown in FIGS. 50B to 50E

[3] = Particle size distribution of micelles via dynamic light scattering (DLS)
Protocol: Dynamic Light Scattering (DLS) has been used in the past for studying surfactant aggregates (N. Vlachy, M. Drechsler, J.-M. Verbavatz, D. Touraud, W. Kunz, Role of surfactant headgroup on the counterion specificity in the micelle-to-vesicle transition through salt addition. J. Colloid Interface Sci. 319, 542-548 (2008)). Micelle size distribution studies of the OFS-12 surfactant was performed using the Microtrac NANO-flex analyzer which employs a 180° scattering angle DLS technique. Two different surfactant concentration samples were prepared (5.0 and 10×CMC, 0.35 and 0.7 wt %) by dissolving the required amount of surfactant in deionized water and filtering the solution after surfactant dissolution using a 0.2μ micropore filter to remove any dust particles. Prior to each sample run, a blank solution (DI water) was used to set the baseline to zero. FIGS. 26A and 26B show the average particle size distribution plots for the surfactant solutions. The average values were computed based on five individual trials each lasting 120 sec.

Compound: CCCCCCCCCCCCc1ccc(S(=O)(=O)[O-])o1.[Na+] [OFS-12, Sodium 5-Dodecylfuran-2-Sulfonate]
Krafft Point [1]: 30 °C and 30.0 ± 1.0 °C
Micelle Stability [2]: > 50,000 ppm Ca^2+
Micelle stability conc. [2]: >50,000 ppm of CaCl2
Turbid conc. ([2]; surfactant at twice CMC): 10,000 ppm of CaCl2
Average micelle size (number distribution) ([3]; surfactant concentration 5.0×CMC in deionized water): 7.41 nm
Average micelle size (number distribution) ([3]; surfactant concentration 10.0×CMC in deionized water): 6.29 nm

Compound: CCCCCCCCCCCCOS(=O)(=O)O [SLS, sodium dodecyl sulfate, reference compound]
Krafft Point ([1]; sulfate): 15 °C and 15.0 ± 1.2 °C
Micelle stability conc. ([2]; surfactant at twice CMC): 33 ppm of CaCl2
Micelle Stability ([2]; surfactant at twice CMC, calcium concentration where surface tension starts to increase): 33 ppm Ca^2+
Turbid conc. ([2]; surfactant at twice CMC): 33 ppm of CaCl2

Compound: sodium lauryl ether sulfate [SLES, reference compound]
Krafft Point [1]: <0 °C
Micelle Stability [2]: > 50,000 ppm Ca^2+
Micelle stability conc. [2]: >50,000 ppm of CaCl2
Turbid conc. ([2]; surfactant at twice CMC): >50,000 ppm of CaCl2

More lines, main results first:

Krafft Point [1]: < 0 °C
Compound: CCCCCCCc1ccc(S(=O)(=O)[O-])o1.[Na+] [OFS-7, Sodium 5-Heptylfuran-2-Sulfonate]
Micelle Stability [2]: 120 ppm Ca^2+
Micelle stability conc. [2]: 110 ppm of CaCl2
Turbid conc. ([2]; surfactant at twice CMC): 230 ppm of CaCl2

Krafft Point [1]: 41.5 °C and 41.5 ± 0.9 °C
Compound: CCCCCCCCCCCCCCc1ccc(S(=O)(=O)[O-])o1.[Na+] [OFS-14, Sodium 5-Tetradecylfuran-2-Sulfonate]
Micelle Stability [2]: > 50,000 ppm Ca^2+
Micelle stability conc. [2]: >50,000 ppm of CaCl2
Turbid conc. ([2]; surfactant at twice CMC): 2,000 ppm of CaCl2
